Consider 16 compounds from ChEMBL document CHEMBL5241092, “The antibacterial activity of fluoroquinolone derivatives: An update (2018-2021)” (2021).

Experiment [1] deals with Staphylococcus aureus. Kind of experiment: Antibacterial activity against fluoroquinolone sensitive Staphylococcus aureus. It counts as functional.
In experiment [2] the test system is Staphylococcus aureus. Kind of experiment: Antibacterial activity against fluoroquinolone/methicillin resistant Staphylococcus aureus. It counts as functional.
Experiment [3] relates to Staphylococcus aureus. Kind of experiment: Potency index, ratio of levofloxacin MIC to test compound MIC for antibacterial activity against fluoroquinolone/methicillin resistant Staphylococcus aureus. The experiment is classed as functional.
The test system of experiment [4] is Salmonella enteritidis. Briefly: Antibacterial activity against Salmonella enteritidis. It counts as functional, Salmonella enterica subsp. enterica serovar Enteritidis. The settings on record: Salmonella enterica.
Experiment [5] relates to Pseudomonas aeruginosa. Kind of experiment: Antibacterial activity against Pseudomonas aeruginosa. It counts as functional.
Experiment [6] relates to Escherichia coli. Kind of experiment: Antibacterial activity against Escherichia coli. The experiment is classed as functional.
In experiment [7] the test system is Staphylococcus aureus. Kind of experiment: Antibacterial activity against Staphylococcus aureus. The experiment is classed as functional.
The subject of experiment [8] is Staphylococcus aureus. Briefly: Antibacterial activity against methicillin resistant Staphylococcus aureus. The experiment is classed as functional.
In experiment [9] the test system is Escherichia coli. Briefly: Antibacterial activity against ciprofloxacin resistant Escherichia coli. It counts as functional.
Experiment [10] relates to Staphylococcus aureus. Briefly: Antibacterial activity against ciprofloxacin resistant Staphylococcus aureus. The experiment is classed as functional.
In experiment [11] the test system is Klebsiella pneumoniae. Kind of experiment: Antibacterial activity against Klebsiella pneumoniae. The experiment is classed as functional.
For experiment [12], the system named is Staphylococcus aureus. Kind of experiment: Antibacterial activity against methicillin resistant Staphylococcus aureus reference strain. The experiment is classed as functional.
Experiment [13] concerns Staphylococcus aureus. Kind of experiment: Antibacterial activity against methicillin resistant Staphylococcus aureus clinical strain. It counts as functional.
Experiment [14] relates to Shigella flexneri. Briefly: Antibacterial activity against Shigella flexneri. It counts as functional.
Experiment [15] deals with Vibrio cholerae. Kind of experiment: Antibacterial activity against Vibrio cholerae. It counts as functional.
Experiment [16] can be described thus: Antibacterial activity against Salmonella typhi. As to conditions: Salmonella enterica. The experiment is classed as functional, Salmonella enterica subsp. enterica serovar Typhimurium.
Experiment [17] has as its system Citrobacter freundii. Kind of experiment: Antibacterial activity against Citrobacter freundii. The experiment is classed as functional.
The subject of experiment [18] is Staphylococcus epidermidis. Briefly: Antibacterial activity against Staphylococcus epidermidis. The experiment is classed as functional.
Experiment [19] concerns Bacillus subtilis. Briefly: Antibacterial activity against Bacillus subtilis. It counts as functional.
Experiment [20] concerns Serratia marcescens. Briefly: Antibacterial activity against Serratia marcescens. It counts as functional.
In experiment [21] the test system is Acinetobacter baumannii. Kind of experiment: Antibacterial activity against quinolone resistant Acinetobacter baumannii. The experiment is classed as functional.
Experiment [22] has as its system Micrococcus luteus. Briefly: Antibacterial activity against Micrococcus luteus. It counts as functional.
Experiment [23] deals with Chlamydia trachomatis. Kind of experiment: Antibacterial activity against Chlamydia trachomatis. It counts as functional.
In experiment [24] the test system is Priestia megaterium. Kind of experiment: Antibacterial activity against Bacillus megaterium. The experiment is classed as functional.
For experiment [25], the system named is Pseudomonas aeruginosa. Briefly: Antibacterial activity against quinolone susceptible Pseudomonas aeruginosa. The experiment is classed as functional.
The test system of experiment [26] is Staphylococcus aureus. Kind of experiment: Antibacterial activity against methicillin susceptible Staphylococcus aureus. The experiment is classed as functional.
In experiment [27] the test system is Pseudomonas aeruginosa. Kind of experiment: Antibacterial activity against quinolone resistant Pseudomonas aeruginosa. The experiment is classed as functional.
Experiment [28] concerns Streptococcus pneumoniae. Kind of experiment: Antibacterial activity against Streptococcus pneumoniae. It counts as functional.
Experiment [29] deals with Clostridioides difficile. Kind of experiment: Antibacterial activity against Clostridioides difficile. It counts as functional.
Experiment [30] relates to Escherichia coli. Kind of experiment: Antibacterial activity against quinolone resistant Escherichia coli. The experiment is classed as functional.
Experiment [31] concerns Yersinia pseudotuberculosis. Briefly: Antibacterial activity against Yersinia pseudotuberculosis. The experiment is classed as functional.
Experiment [32] relates to Bacillus cereus. Briefly: Antibacterial activity against Bacillus cereus. The experiment is classed as functional.
Experiment [33] relates to Enterococcus faecalis. Kind of experiment: Antibacterial activity against Enterococcus faecalis. The experiment is classed as functional.

One may read the MIC as the smallest concentration in the dilution series that meets the test's criterion for growth inhibition. High values mean a less susceptible organism, low ones a more susceptible organism. For orientation: MBC means the smallest concentration meeting the test's criterion for killing. Higher therefore signals weaker bactericidal potency. As a reminder, the MIC50 is the lowest concentration that inhibits either 50% of growth or 50% of the strains tested, depending on the study. Higher therefore signals lower susceptibility. The MIC90 is the lowest concentration that inhibits either 90% of growth or 90% of the strains tested, depending on the study. A low value points to higher susceptibility.

Values after ≈ are worked out from the molar mass of the structure shown.

In the case of `CC(Cl)C(=O)OC1CC2CCC(C1)N2c1c(F)cc2c(=O)c(C(=O)O)cn3c2c1OC[C@@H]3C` (some centres undefined), the MIC in experiment [1] and in experiment [2] was no more than 0.5 µg/mL each time. Moreover, in experiment [3], the Ratio is reported as 4.

Regarding `CCn1cc(C(=O)O)c(=O)c2cc(F)c(N3CCN(C(=O)CN4C(=O)S/C(=C\c5ccc(Cl)cc5)C4=O)CC3)cc21`, the MIC in [4], in experiment [5] and in experiment [6] was 0.25 µg/mL (≈ 0.417 µM) in each case.

As to `CCn1cc(C(=O)O)c(=O)c2cc(F)c(N3CCN(C(=O)CN4C(=O)S/C(=C\c5ccc(N(C)C)cc5)C4=O)CC3)cc21`, the MIC in [4], in experiment [5] and in experiment [6] was 0.25 µg/mL (≈ 0.411 µM) each time.

On to `O=C(O)c1cn(-c2ccc(F)cc2)c2cc(N3CCN(Cc4nc5cc(Cl)ccc5c(=O)[nH]4)CC3)c(F)cc2c1=O`, for which the MIC in [7] and in experiment [8] was 0.125 µg/mL (≈ 0.216 µM) throughout.

For the compound `Cc1nc(Cl)nc(N2CCN(c3cc4c(cc3F)c(=O)c(C(=O)O)cn4C3CC3)CC2)c1N`, the MIC in [9] and in [10] was 7.4 µg/mL (≈ 15.6 µM) in each case.

On to `O=C(O)c1cn(C2CC2)c2cc(N3CCN(Cc4c(O)ccc5ccccc45)CC3)c(F)cc2c1=O`, for which the minimum inhibitory concentration (MIC) in [5], in [11], in [12], in experiment [6] and in experiment [13] was 0.012 µg/mL (≈ 0.0246 µM) each time.

Consider `O=C(O)c1cn(C2CC2)c2cc(N3CCN(CN4c5ccccc5C(=O)N(c5ccc(Cl)cc5)C4c4ccccc4)CC3)c(F)cc2c1=O` (centres undefined), for which the MIC in experiment [14], in experiment [5], in [11], in [15], in experiment [16] and in [7] was 0.1 µg/mL (≈ 0.147 µM) in each case. Moreover, the MIC in experiment [17] and in experiment [18] was 0.1 µg/mL (≈ 0.147 µM) in each case.

For the compound `O=C(CN1CCN(c2cc3c(cc2F)c(=O)c(C(=O)O)cn3-c2ccc(F)cc2)CC1)c1ccc(Cl)cc1`, the MIC in experiment [5], in experiment [11], in [19], in experiment [6], in experiment [7] and in experiment [20] was 0.5 µg/mL (≈ 0.929 µM) throughout. For the same compound, in [18], inhibition of growth (MIC) required 0.5 µg/mL (≈ 0.929 µM).

Turning to `O=C(O)c1cn(C2CC2)c2cc(N3CCN(CN4c5ccccc5C(=O)N(c5ccc(Br)cc5)C4c4ccccc4)CC3)c(F)cc2c1=O` (centres undefined), the MIC in experiment [14], in experiment [5], in experiment [11], in experiment [15], in [16] and in [7] was 0.1 µg/mL (≈ 0.138 µM) each time. Moreover, the minimum inhibitory concentration (MIC) in experiment [17] and in [18] was 0.1 µg/mL (≈ 0.138 µM) each time.

With `COc1cc(C=O)cc(CN2CCN(c3cc4c(cc3F)c(=O)c(C(=O)O)cn4C3CC3)CC2)c1O`, the minimal inhibitory concentration (MIC) in experiment [5], in experiment [11], in experiment [12], in experiment [6] and in [13] was 0.012 µg/mL (≈ 0.0242 µM) each time.

As to `O=C(O)c1cn(C2CC2)c2cc(N3CCNCC3)c(F)cc2c1=O` [CIPROFLOXACIN], the MIC came out at 16 µg/mL (≈ 48.3 µM) in experiment [21]; 0.15 µg/mL (≈ 0.453 µM) in [14]; 0.012 µg/mL (≈ 0.0362 µM) in experiment [5]; 7.8 µg/mL (≈ 23.5 µM) in experiment [22]; 0.15 µg/mL (≈ 0.453 µM) in experiment [11]; 0.15 µg/mL (≈ 0.453 µM) in experiment [15]. For the same compound, the minimum inhibitory concentration (MIC) in [9] amounted to 20.5 µg/mL (≈ 61.9 µM); in [16], 0.15 µg/mL (≈ 0.453 µM); in [19], 0.015 µg/mL (≈ 0.0453 µM); in experiment [7] it was 0.015 µg/mL (≈ 0.0453 µM); in experiment [24], 7.8 µg/mL (≈ 23.5 µM); in [10], 20.5 µg/mL (≈ 61.9 µM). Further, the MIC was 0.008 µg/mL (≈ 0.0241 µM) in experiment [25]; 0.15 µg/mL (≈ 0.453 µM) in [17]; 0.015 µg/mL (≈ 0.0453 µM) in experiment [18]; 0.195 µg/mL (≈ 0.589 µM) in experiment [26]; 16 µg/mL (≈ 48.3 µM) in [27]. The MBC in [23] is greater than 50 µg/mL.

On to `COc1c(N2CCNC(C)C2)c(F)cc2c(=O)c(C(=O)O)cn(C3CC3)c12` (centres undefined) [GATIFLOXACIN], for which the MIC in experiment [28], in [7] and in experiment [26] was 0.06 µg/mL (≈ 0.16 µM) throughout.

On to `C[C@H]1COc2c(N3CCN(C)CC3)c(F)cc3c(=O)c(C(=O)O)cn1c23.C[C@H]1COc2c(N3CCN(C)CC3)c(F)cc3c(=O)c(C(=O)O)cn1c23.O` [LEVOFLOXACIN], for which the MIC is 4 µg/mL in experiment [21], 4 µg/mL in experiment [30] and 0.015 µg/mL in experiment [25]. The compound further displayed an MIC50 in experiment [29] of 128 µg/mL. In experiment [29], this compound yielded an MIC90 greater than 128 µg/mL.

For the compound `Cc1ncc([N+](=O)[O-])n1CCO` [METRONIDAZOLE], in [29], the MIC50 stood at 2 µg/mL (≈ 11.7 µM) and the MIC90 is 4 µg/mL (≈ 23.4 µM).

Consider `CCn1cc(C(=O)O)c(=O)c2cc(F)c(N3CCNCC3)cc21` [NORFLOXACIN], for which the MIC in [4] is 0.0625 µg/mL (≈ 0.196 µM); in experiment [5], less than 0.24 µg/mL; in experiment [16], 2.4 µg/mL (≈ 7.52 µM); in experiment [6], less than 0.24 µg/mL; in [7], less than 0.24 µg/mL; in [31] it was less than 0.24 µg/mL. In addition, the MIC in experiment [32] and in experiment [33] was less than 0.24 µg/mL throughout.

In experiment [29], `CN[C@H](CC(C)C)C(=O)N[C@H]1C(=O)N[C@@H](CC(N)=O)C(=O)N[C@H]2C(=O)N[C@H]3C(=O)N[C@H](C(=O)N[C@H](C(=O)O)c4cc(O)cc(O)c4-c4cc3ccc4O)[C@H](O)c3ccc(c(Cl)c3)Oc3cc2cc(c3O[C@@H]2O[C@H](CO)[C@@H](O)[C@H](O)[C@H]2O[C@H]2C[C@](C)(N)[C@H](O)[C@H](C)O2)Oc2ccc(cc2Cl)[C@H]1O` [VANCOMYCIN] yielded an MIC50 of 2 µg/mL (≈ 1.38 µM) and an MIC90 of 4 µg/mL (≈ 2.76 µM).
